Measured values taken from the supplement of paper PMC10331698.
± gives the standard deviation of the averaged measurements.

Experiments:
Assay in all cases: level (log10 ratio to DMSO vehicle control); higher = higher biomarker level / cell amount than vehicle control
Conditions in all cases: in DMSO
[1] = compound: C=CC(=O)OCC(F)(F)C(F)(F)C(F)(F)C(F)(F)C(F)(F)C(F)(F)C(F)(F)F [1H,1H-Perfluorooctyl acrylate]
Procedure: (§1)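 BioMAP Diversity Plus panel of 12 human primary cell co-culture systems (3C, 4H, LPS, SAg, BT, BF4T, BE3C, CASM3C, HDF3CGF, KF3CT, MyoF, Mphg). Compounds were added 1 h before stimulation and left for 24 h (MyoF 48 h; BT 72 h for soluble read-outs or 6 d for IgG). Biomarkers were read by ELISA, cytotoxicity by SRB, PBMC viability and proliferation by Alamar Blue. Each well value was divided by the mean of 8 DMSO control wells on the same plate and log10 transformed; duplicate blinded samples were tested at 4 concentrations.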

Perfluoro-1-iodohexane = compound: FC(F)(F)C(F)(F)C(F)(F)C(F)(F)C(F)(F)C(F)(F)I [Perfluoro-1-iodohexane]
Procedure: as §1

Perfluoroheptanoic acid = compound: O=C(O)C(F)(F)C(F)(F)C(F)(F)C(F)(F)C(F)(F)C(F)(F)F [Perfluoroheptanoic acid]
Procedure: as §1

[2] = compound: O=C(O)C(F)(F)C(F)(F)OC(F)(F)F [Perfluoro-3-methoxypropanoic acid]
Procedure: as §1

[3] = compound: O=C(O)C(F)(F)OC(F)(F)C(F)(F)OC(F)(F)C(=O)O [Perfluoro-3,6-dioxaoctane-1,8-dioic acid]
Procedure: as §1

[4] = compound: O=S(=O)(O)C(F)(F)C(F)(F)C(F)(F)C(F)(F)C(F)(F)C(F)(F)F [Perfluorohexanesulfonic acid]
Procedure: as §1

| Test System | level (log10) ([1]; 6700 nM) | level (log10) ([1]; 20000 nM) | level (log10) ([1]; 60000 nM) | level (log10) (Perfluoro-1-iodohexane; 6700 nM) | level (log10) (Perfluoro-1-iodohexane; 20000 nM) | level (log10) (Perfluoro-1-iodohexane; 60000 nM) | level (log10) (Perfluoroheptanoic acid; 6700 nM) | level (log10) (Perfluoroheptanoic acid; 20000 nM) | level (log10) (Perfluoroheptanoic acid; 60000 nM) | level (log10) ([2]; 6700 nM) | level (log10) ([2]; 20000 nM) | level (log10) ([2]; 60000 nM) | level (log10) ([3]; 6700 nM) | level (log10) ([3]; 20000 nM) | level (log10) ([3]; 60000 nM) | level (log10) ([4]; 6700 nM) | level (log10) ([4]; 20000 nM) | level (log10) ([4]; 60000 nM) |
| --- | --- | --- | --- | --- | --- | --- | --- | --- | --- | --- | --- | --- | --- | --- | --- | --- | --- | --- |
| HDF3CGF:TIMP-2 | 0.0145 ± 0.016 | -0.023 ± 0.011 | -0.041 ± 0.0028 | 0.017 ± 0.038 | 0.0295 ± 0.018 | 0.031 ± 0.045 | -0.011 ± 0.018 | -0.012 ± 0.017 | 0.014 ± 0.0085 | -0.029 ± 0.047 | 0.001 ± 0.0099 | -0.01 ± 0.023 | -0.0145 ± 0.035 | -0.0075 ± 0.011 | 0.001 ± 0.027 | -0.0055 ± 0.015 | 0.0095 ± 0.0035 | -0.02 ± 0.0099 |
| HDF3CGF:CD54/ICAM-1 | -0.015 ± 0.0028 | -0.037 ± 0.0042 | -0.0545 ± 0.013 | -0.014 ± 0.0099 | -0.0225 ± 0.013 | -0.0255 ± 0.0078 | 0.004 ± 0.02 | -0.0145 ± 0.005 | -0.0255 ± 0.018 | -0.017 ± 0.0028 | -0.0025 ± 0.005 | -0.0055 ± 0.00071 | -0.0095 ± 0.0092 | 0.0015 ± 0.00071 | -0.0085 ± 0.0035 | -0.0195 ± 0.00071 | -0.0325 ± 0.00071 | -0.0345 ± 0.0035 |
| CASM3C:CCL2/MCP-1 | -0.0035 ± 0.0078 | -0.0095 ± 0.0035 | -0.004 ± 0.0071 | 0.006 ± 0.0099 | -0.0085 ± 0.019 | 0.0015 ± 0.049 | -0.0115 ± 0.015 | -0.013 ± 0.011 | 0.032 ± 0.044 | -0.0175 ± 0.032 | -0.0215 ± 0.03 | 0.017 ± 0.0099 | -0.033 ± 0.037 | -0.034 ± 0.027 | 0.021 ± 0.02 | -0.0215 ± 0.018 | -0.013 ± 0.0085 | 0.0035 ± 0.00071 |
| MyoF:Collagen IV | 0.034 ± 0.054 | 0.03 ± 0.035 | 0.062 ± 0.071 | -0.033 ± 0.027 | -0.031 ± 0.028 | 0.193 ± 0.013 | -0.0175 ± 0.022 | -0.014 ± 0.013 | 0.0305 ± 0.07 | -0.021 ± 0.02 | 0.002 ± 0.0085 | 0.009 ± 0.013 | -0.0165 ± 0.013 | -0.011 ± 0.031 | 0.0295 ± 0.00071 | -0.023 ± 0.018 | -0.0065 ± 0.032 | 0 ± 0.031 |
| MyoF:Collagen I | -0.0195 ± 0.018 | -0.03 | -0.0145 ± 0.011 | -0.0295 ± 0.019 | -0.062 ± 0.04 | -0.246 ± 0.094 | -0.0225 ± 0.011 | -0.006 | 0.0055 ± 0.043 | 0.006 ± 0.02 | 0 ± 0.016 | 0.0165 ± 0.013 | 0.0015 ± 0.015 | -0.005 ± 0.0099 | 0.002 ± 0.011 | -0.0035 ± 0.023 | 0.008 ± 0.025 | 0.019 ± 0.028 |
| KF3CT:MMP-9 | -0.0245 ± 0.00071 | -0.0225 ± 0.019 | -0.014 ± 0.014 | -0.0225 ± 0.0064 | -0.0225 ± 0.0092 | -0.044 ± 0.0099 | -0.0065 ± 0.0078 | 0.0165 ± 0.026 | 0.059 ± 0.025 | -0.002 ± 0.0085 | 0.001 ± 0.0071 | 0.01 ± 0.014 | -0.0105 ± 0.012 | 0 ± 0.0042 | 0.007 ± 0.0085 | 0.0095 ± 0.0064 | 0.028 ± 0.0014 | 0.027 ± 0.0057 |
| lMphg:SRB-Mphg | -0.002 ± 0.011 | -0.0015 ± 0.0078 | 0.0045 ± 0.018 | 0.002 ± 0.0057 | -0.006 ± 0.0028 | 0.0025 ± 0.029 | -0.003 ± 0.014 | 0.005 ± 0.0071 | 0.004 ± 0.0042 | -0.007 ± 0.02 | -0.0165 ± 0.019 | -0.022 ± 0.025 | -0.0025 ± 0.0035 | -0.009 ± 0.016 | -0.003 ± 0.0099 | 0.0015 ± 0.074 | 0.013 ± 0.0071 | 0.0255 ± 0.018 |
